We go through 8 compounds from PMC2693246 (ACS chemical biology, 2009).

In brackets after ≈: the same amount, converted by molar mass. Entries after “also recorded” stand apart in the source; their conditions may differ.

The nature of one data set: in vitro. Conditions: African green monkey.
In data set [1] the target is T1, ftuFabI (Francisella tularensis subsp. tularensis, UniProt Q5NGQ3). The format is biochemical.
A further data set deals with F. tularensis Schu4. More on the design: species or system mice. The settings on record: mouse, in vivo; for %Survival: ip, 200 mg/kg.
In another data set the test system is F. tularensis LVS. The experiment in a line: microbe, parasite or virus in culture. The format is cell-based, Francisella tularensis. The settings on record: for MIC90: Francisella tularensis.
Data set [2] addresses T1, ftuFabI. The experiment in a line: biochemical. Type of data set: biochemical.
Data set [3] concerns the target T1, ftuFabI. The format is biochemical. The source holds these as a separate data set.
Another data set has as its system ecFabI. The settings on record: cited from earlier work.

T1 sequence (Q5NGQ3 1-260): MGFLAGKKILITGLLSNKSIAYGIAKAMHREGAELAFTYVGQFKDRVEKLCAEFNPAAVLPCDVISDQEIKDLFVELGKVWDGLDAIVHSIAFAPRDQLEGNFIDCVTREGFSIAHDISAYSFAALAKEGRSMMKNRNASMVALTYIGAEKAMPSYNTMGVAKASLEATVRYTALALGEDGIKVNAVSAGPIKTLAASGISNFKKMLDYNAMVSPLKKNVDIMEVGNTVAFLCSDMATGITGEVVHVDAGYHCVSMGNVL

Broadly, the Ki is a measure of affinity in units of concentration, obtained from inhibition or displacement. The compound `Oc1cc(Cl)ccc1Oc1ccc(Cl)cc1Cl` [Compound 1, triclosan, reference compound] registered a CC50 in the data set “in vitro” of 14000 ± 1000 ng/mL (≈ 48.4 µM). On ftuFabI [1], the “Type of Inhibition” value is “uncompetitive inhibitor; also recorded: Slow-onset” and the “fold tighter binding to E:NAD+ than to E:NADH” value is on record as “approximately 90,000 fold”. For the same compound, in the data set with F. tularensis Schu4, the “Median Survival” value came out at 7.8 days, the “efficacy in the 10-day animal model of infection” value (“efficacy” below) was “demonstrated efficacy” and the “%Survival” value is given as 22%. Further, the MIC90 against F. tularensis LVS amounted to 0.015 ng/mL (≈ 5.18e-05 µM). Also, on ftuFabI [2], the affinity, expressed as Ki, was 407 ± 48 nM; the k2 was found to be 0.56 ± 0.04 min⁻¹; the “k−2” value stood at 0.025 ± 0.003 min⁻¹; the residence time was 40 ± 3 min.
Consider `Oc1cc(F)ccc1Oc1ccccc1` [Compound 3, 5-fluoro-2-phenoxyphenol], for which, on ftuFabI [1], the “Type of Inhibition” value is given as “not a slow-onset inhibitor; also recorded: Rapid equilibrium”. The “fold decrease in binding affinity compared to 4 and 7” value at ftuFabI [3] was 150 fold. The compound also came in with an MIC90 in the data set with F. tularensis LVS of 320 ± 20 ng/mL (≈ 1.57 µM).
Consider `Oc1cc(Cl)ccc1Oc1ccccc1` [Compound 4, 5-chloro-2-phenoxyphenol], for which the CC50 in “in vitro” came out at 60000 ± 14000 ng/mL (≈ 272 µM). Moreover, on ftuFabI [1], the “Type of Inhibition” value is “Slow-onset” and the “fold decrease in affinity for ftuFabI compared to triclosan” value was 37 fold. For the same compound, the “fold higher affinity for ecFabI than triclosan” value in the data set on ecFabI is given as 7 fold. Besides, in the data set with F. tularensis Schu4, the “Median Survival” value amounted to 6.8 days, the “efficacy” value is “demonstrated efficacy” and the “%Survival” value stood at 11%. The compound further gave an MIC90 with F. tularensis LVS of 1 ± 1 ng/mL (≈ 0.00453 µM). In addition, at ftuFabI [2], the Ki stood at 665 ± 70 nM, the k2 turned out to be 0.11 ± 0.01 min⁻¹, the “k−2” value amounted to 0.033 ± 0.002 min⁻¹ and the residence time was determined as 30 ± 2 min.
Regarding `Cc1ccc(Oc2ccccc2)c(O)c1` [Compound 7, 5-methyl-2-phenoxyphenol], at ftuFabI [1], the “Type of Inhibition” value is given as “slow-onset inhibitors”. For the same compound, the MIC90 in the data set with F. tularensis LVS is 160 ± 70 ng/mL (≈ 0.799 µM).
Regarding `CCCc1ccc(Oc2ccccc2)c(O)c1` [Compound 9, 5-propyl-2-phenoxyphenol], the CC50 in “in vitro” came to 62000 ± 3000 ng/mL (≈ 272 µM). Moreover, the “Type of Inhibition” value at ftuFabI [1] is “slow-onset inhibitors”. In the data set with F. tularensis Schu4, the “Median Survival” value amounted to 7.8 days, the “efficacy” value is “demonstrated efficacy” and the “%Survival” value came out at 39%. Moreover, in the data set on F. tularensis LVS, the “fold more potent (MIC90) than doxycycline” value is > 4,000 fold, the “fold more potent (MIC90) than gentamicin” value is “more than 22,000 fold” and the MIC90 was determined as 0.18 ± 0.14 ng/mL (≈ 0.000788 µM). Also, on ftuFabI [2], the Ki was 375 ± 6 nM, the k2 was 1.66 ± 0.01 min⁻¹, the “k−2” value was 0.017 ± 0.002 min⁻¹ and the residence time amounted to 59 ± 2 min.
In turn, `C[C@H]1c2cccc(O)c2C(=O)C2=C(O)[C@]3(O)C(=O)C(C(N)=O)=C(O)[C@@H](N(C)C)[C@@H]3[C@@H](O)[C@@H]21` [Doxycycline, reference compound] yielded an MIC90 in the data set on F. tularensis LVS of 750 ± 350 ng/mL (≈ 1.69 µM).
Consider `CNC(C)C1CCC(N)C(OC2C(N)CC(N)C(OC3OCC(C)(O)C(NC)C3O)C2O)O1` (stereo not shown) [Gentamicin, reference compound], for which the MIC90 against F. tularensis LVS is 4000 ng/mL (≈ 8.38 µM).
Regarding `[H]/N=C(/N)N[C@H]1[C@H](O)[C@@H](O)[C@H](O[C@@H]2O[C@@H](C)[C@](O)(C=O)[C@H]2O[C@@H]2O[C@@H](CO)[C@H](O)[C@@H](O)[C@@H]2NC)[C@@H](N/C(N)=N\[H])[C@@H]1O` [Streptomycin, reference compound], the MIC90 against F. tularensis LVS is 2000 ng/mL (≈ 3.44 µM).
